The test system of one data set is M-CSF mRNA. Put plainly: M-CSF mRNA qRT-PCR in HK-2 cells. Format: cell-based, human. Also noted: key to Upregulation of M-CSF HK-2 R: +: statistically significant increase; −: no significant increase. Conditions: for Upregulation of M-CSF HK-2 R: mRNA levels, 72 h time point. Here is the method:
Hs00273334_m1), Lcn2 (NGAL; Hs01008571_m1), and Csf1 (M-CSF; Hs00174164_m1). All probes span an exon-exon junction. The real-time quantitative reverse transcription PCR (qRT-PCR) was performed in a 10 μl final reaction mixture using a ViiA 7TM system (Applied Biosystems®, Sydney, NSW, Australia) based on the following thermo cycling conditions: 10 min at 95°C for one cycle, 15 sec at 95°C, 60 sec at 60°C for 40 cycles. The ViiA 7TM software was used for data analysis with Hprt1 expression used for normalization. All assays were performed at least three times, with at least two technical replicates in each assay.

For data set [1], the system named is M-CSF. Kind of data set: M-CSF protein ELISA in hRPTECs. The conditions noted are these: protein levels in culture medium; 72 h time point. Format: cell-based, human. On the set-up: key: +: statistically significant increase; −: no significant increase. Here is the method:
Sandwich-ELISA experiments were conducted following the manufacturer's instructions with slight modifications. A 96-well microplate (MaxiSorp®, Nunc, Thermo Scientific, NSW, Australia) was coated with 100 μL of capture antibodies (diluted 1:200 in PBS) and incubated overnight. The plate was then washed twice with washing buffer (0.05% Tween 20 in PBS, pH 7.4) and blocked by adding 300 μL of blocking buffer (1% bovine serum albumin (BSA) in PBS) for 1 h at room temperature. After washing two times with PBS, 100 μL of samples (cell culture media or cell lysates) or standards were then added to each well and incubated for 2 h at room temperature. The biotinylated detection antibodies were then diluted in blocking buffer, added to each well and incubated for 2 h. Horseradish peroxidase (HRP)-labeled streptavidin (100 μL) was then added to bind to detection antibodies. To each well, 100 μL of substrate solution (1:1 mixture of H2O2 and tetramethylbenzidine) was added and incubated for 20 min before reaction termination with 50 μL of stop solution (2N H2SO4). The optical density of each well was measured at 450 nm using a POLARstar Omega plate reader (BMG Labtech). All assays were performed at least three times, with at least two technical replicates in each assay.

The next data set concerns KIM-1. Conditions: published in vivo data; ref Vaidya et al. [2006]; cited from earlier work.
Data set [2] relates to M-CSF. Also noted: key: +: statistically significant increase; −: no significant increase. The conditions noted are these: published in vivo data; ref Razzaque and Taguchi [2002]; Menke et al. [2009]; cited from earlier work.
Data set [3] in a line: MTT cytotoxicity assay in HK-2 cells. Conditions: human, HK-2 cells; 72 h incubation; Mean ± Standard deviation, n = 3. Format: cell-based, human. Here is the method:
(§1) For the MTT assay, the medium was then removed, the dried crystals were resuspended in 60 μL of Dimethyl sulfoxide (DMSO), and the absorbance was read at 570 nm. For the resazurin assay, the fluorescence intensity was read using a PolarStar Omega plate reader (BMG Labtech; Mornington VIC, Australia) at excitation/emission 560/590 nm. All assays were performed at least three times. […] La Jolla, CA). Both MTT and resazurin assays were performed three times, with two technical replicates in each assay.

Data set [4] in a line: MTT cytotoxicity assay in hRPTECs. Conditions: human, hRPTECs (passage 2); 72 h incubation; Mean ± Standard deviation, n = 3. Format: cell-based, human. Here is the method:
as §1
A general note: Tetrazolium dyes change colour on reduction, which living cells bring about.

Data set [5] can be described thus: Resazurin cytotoxicity assay in HK-2 cells. Conditions: human, HK-2 cells; 72 h incubation; Mean ± Standard deviation, n = 3. Format: cell-based, human. On the procedure:
as §1

In data set [6] the test system is HK-2 cells. Put plainly: Resazurin cytotoxicity assay in HK-2 cells. Format: cell-based, human. On the procedure: as §1
Background: Alamar Blue is a resazurin reagent that responds to reducing activity.

Data set [7] can be described thus: Resazurin cytotoxicity assay in hRPTECs. Format: cell-based, human. Conditions: human, hRPTECs (passage 2); 72 h incubation; Mean ± Standard deviation, n = 3. Here is the method: as §1
Data set [8] relates to hRPTECs. Kind of data set: Resazurin cytotoxicity assay in hRPTECs. Format: cell-based, human. Here is the method: as §1
In data set [9] the test system is HK-2 cells. Put plainly: MTT cytotoxicity assay in HK-2 cells. Format: cell-based, human. The conditions noted are these: 72 h incubation; Mean ± Standard deviation, n = 3. On the procedure:
as §1

Data set [10] has as its system hRPTECs. Kind of data set: MTT cytotoxicity assay in hRPTECs. Format: cell-based, human. Conditions: 72 h incubation; Mean ± Standard deviation, n = 3. On the procedure: as §1
[11] abbreviates: 72 h, highest concentrations gentamicin 1 mmol/L, CsA 50 μmol/L, cell type not given.
Setting [12] is: 72 h incubation, Mean ± Standard deviation, n = 3.

This is an account of results in PMC4492764, “Evaluation of biomarkers for in vitro prediction of drug-induced nephrotoxicity: comparison of HK-2, immortalized human proximal tubule epithelial, and primary cultures of human proximal tubular cells” (Pharmacology Research & Perspectives, 2015).

Counter-ions that a name gives are not always drawn.

Consider `N.N.[Cl][Pt][Cl]` [Cisplatin, cisplatin], for which, in the data set with M-CSF mRNA (72 h exposure, P < 0.005), the “M-CSF mRNA level in HK-2 cells” value is given as “clearly increased”. The “Upregulation of M-CSF HK-2 R” value in the data set with M-CSF mRNA is “+”. Besides, the “Upregulation of M-CSF hRPTECs P” value in the data set with M-CSF [1] is “+”. Also, in the data set with KIM-1, the “Upregulation of KIM-1 in vivo” value is >5-fold (Vaidya et al. [2006]). In addition, the “Upregulation of M-CSF in vivo” value in the data set with M-CSF [2] was “+ (Razzaque and Taguchi [2002]; Menke et al. [2009])”.

Usually CC50 stands for the concentration that lowers cell viability or growth by half. As for `CNC(C)C1CCC(N)C(OC2C(N)CC(N)C(OC3OCC(C)(O)C(NC)C3O)C2O)O1` (centres unmarked) [Gentamicin, gentamicin sulfate], the CC50 at 72 h in data set [3], in data set [4], in data set [5] and in data set [7] was over 1 mM throughout. The “toxicity in resazurin assay at highest concentration tested” value with HK-2 cells [6] (setting [11]) and in the data set with hRPTECs [8] (setting [11]) was “no toxicity” each time.

Turning to Colistin sulfate, the CC50 with HK-2 cells [9] was over 300 µM; in the data set with hRPTECs [10], over 300 µM; in the data set on HK-2 cells [6] (setting [12]), over 300 µM; in the data set with hRPTECs [8] (setting [12]), 177 ± 15 µM. Besides, the “Upregulation of M-CSF HK-2 R” value with M-CSF mRNA is “−”. Besides, in the data set with M-CSF [1], the “Upregulation of M-CSF hRPTECs P” value is given as “−”.
